Laboratory results reported in patent US20190298694A1, “Use Of Carbamate Compound For Preventing Or Treating Fibromyalgia Or Functional Syndrome Associated With Fibromyalgia” (SK BIOPHARMACEUTICALS CO., LTD., priority 2016, published 2019).
Marks after values point to notes of the source that are not given here.

Test system: mechanical allodynia induced by injection of acidic saline into gastrocnemius muscle
Test: Pain suppression in animal model of fibromyalgia: mechanical allodynia induced by repeated intramuscular acidic saline, paw withdrawal threshold by von Frey filaments (up-down method)
Type: in vivo, rats (Sprague-Dawley)
Conditions: for Area under the curve of the paw withdrawal threshold curve over time, compared with the vehicle group: ip
From the text: Musculoskeletal pain is a major feature of fibromyalgia. A model that is linked to musculoskeletal pain in humans has been developed by Sluka K A, which model is characterized by mechanical sensitization induced by repeated intramuscular injections of acidic saline.
This experiment evaluated the effect of the test compound on persistent mechanical allodynia, which may well represent muscle pain or tenderness observed in patients with fibromyalgia. Repeated injections of acidic saline into the gastrocnemius muscle of rats lead to mechanical allodynia due to central sensitization (Sluka K A et. al., Unilateral intramuscular injections of acidic saline produce a bilateral, long-lasting hyperalgesia, Muscle Nerve. 2001).
Male rats (Sprague-Dawley, 150-200 g, 6 weeks old, Orient Bio Co., Ltd.) were purchased and subjected to acclimatization for more than 1 week in an animal chamber. The experimental animals were maintained under conditions of light-and-darkness cycle of 12 hours, a temperature of 22 to 25° C., a relative humidity of 40 to 60%, and free access to water and food.
Mechanical allodynia was assessed by measuring the paw withdrawal threshold of the rat right hind paw using Dixon's “up-down method” (Chaplan et. al., Quantitative assessment of tactile allodynia in the rat paw. J Neurosci Methods, 1994; Dixon W J, Efficient analysis of experimental observations, Annu Rev Pharmacol Toxicol. 1980). First, the rats were placed in an acrylic box (13×25×13 cm3) located on a wire mesh installed at a height of about 35 cm from the floor and stabilized for more than 20 minutes. […] von Frey filaments with various bending forces (0.2, 0.4, 0.6, 1.0, 2.0, 4.0, 6.0, 8.0, 15.0 g) were used. Starting with a filament of 2.0 g, bending force was applied perpendicular to the sole surface. In the case of no withdrawal (avoidance response), the next higher bending force filament was applied, or, in the case of withdrawal (avoidance response), the next lower bending force filament was applied. In order to obtain at least six (6) response results, the application of filaments was proceeded four (4) more times after showing the change in withdrawal.
The baseline withdrawal (avoidance response) threshold for mechanical stimulation on the right hind paw of rats was measured. 100 μl of preservative-free acidic saline (0.9% sodium chloride, pH 4.0) was intramuscularly injected into the right gastrocnemius muscle of the rats. After 5 days, the acidic saline was intramuscularly injected again into the same region by the same method. At 7 or 8 days after the second administration of acidic saline, induction of mechanical allodynia was confirmed by measuring withdrawal (avoidance response) thresholds to mechanical stimulation on the right hind paw, and rats with a mechanical withdrawal (avoidance response) threshold of less than 4.5 g were used for the evaluation of the test drug (Sluka K A et. al., Unilateral intramuscular injections of acidic saline produce a bilateral, long-lasting hyperalgesia, Muscle Nerve. 2001).
The test compound was prepared as a solution using 30% PEG 400 and 70% distilled water on a volume basis. Each solution was administered intraperitoneally to the rats at a volume of 3 ml per kg of rat. Withdrawal (avoidance response) thresholds to mechanical stimulation were measured at 30 minutes, 1 hour, 2 hours and 4 hours after drug administration.
[% MPE=(threshold over time after drug treatment−threshold at 0 hour)/(threshold of normal group−threshold at 0 hour)×100]
The vehicle or the test compound was administered intraperitoneally at doses of 5, 10 and 20 mg/kg, and withdrawal thresholds to mechanical stimulation were measured at 30 minutes, 1 hour, 2 hours and 4 hours.

## NC(=O)O[C@@H](Cn1ncnn1)c1ccccc1Cl [Test compound]
5 mg/kg ip group, 0 h (pre-dose, after acidic saline)
  Withdrawal threshold of the right hind paw to mechanical stimulation (mean): 2.97 g
5 mg/kg ip group, baseline, prior to first injection of acidic saline (pre-dose)
  Withdrawal threshold of the right hind paw to mechanical stimulation (mean): 13.69 g
5 mg/kg ip, 30 min
  Effect (%) (% MPE, percent of maximum possible effect): 10.8%
5 mg/kg ip, 30 min after administration
  Withdrawal threshold of the right hind paw to mechanical stimulation (mean): 4.02 g
5 mg/kg ip, 1 h
  Effect (%) (% MPE, percent of maximum possible effect): 35.6%
5 mg/kg ip, 1 h after administration
  Withdrawal threshold of the right hind paw to mechanical stimulation (mean): 6.41^d g
5 mg/kg ip, 2 h
  Effect (%) (% MPE, percent of maximum possible effect): 38.3%
5 mg/kg ip, 2 h after administration
  Withdrawal threshold of the right hind paw to mechanical stimulation (mean): 6.67^e g
5 mg/kg ip, 4 h
  Effect (%) (% MPE, percent of maximum possible effect): 10.7%
5 mg/kg ip, 4 h after administration
  Withdrawal threshold of the right hind paw to mechanical stimulation (mean): 4.01 g
10 mg/kg ip group, 0 h (pre-dose, after acidic saline)
  Withdrawal threshold of the right hind paw to mechanical stimulation (mean): 3.20 g
10 mg/kg ip group, baseline, prior to first injection of acidic saline (pre-dose)
  Withdrawal threshold of the right hind paw to mechanical stimulation (mean): 14.29 g
10 mg/kg ip, 30 min
  Effect (%) (% MPE, percent of maximum possible effect): 11.4%
10 mg/kg ip, 30 min after administration
  Withdrawal threshold of the right hind paw to mechanical stimulation (mean): 4.27 g
10 mg/kg ip, 1 h
  Effect (%) (% MPE, percent of maximum possible effect): 47.5%
10 mg/kg ip, 1 h after administration
  Withdrawal threshold of the right hind paw to mechanical stimulation (mean): 7.68^e g
10 mg/kg ip, 2 h
  Effect (%) (% MPE, percent of maximum possible effect): 43.5%
10 mg/kg ip, 2 h after administration
  Withdrawal threshold of the right hind paw to mechanical stimulation (mean): 7.30^e g
10 mg/kg ip, 4 h
  Effect (%) (% MPE, percent of maximum possible effect): 11.3%
10 mg/kg ip, 4 h after administration
  Withdrawal threshold of the right hind paw to mechanical stimulation (mean): 4.26 g
10 mg/kg
  Area under the curve of the paw withdrawal threshold curve over time, compared with the vehicle group: statistically significant effects
20 mg/kg ip group, 0 h (pre-dose, after acidic saline)
  Withdrawal threshold of the right hind paw to mechanical stimulation (mean): 2.95 g
20 mg/kg ip group, baseline, prior to first injection of acidic saline (pre-dose)
  Withdrawal threshold of the right hind paw to mechanical stimulation (mean): 13.83 g
20 mg/kg ip, 30 min
  Effect (%) (% MPE, percent of maximum possible effect): 44.6%
20 mg/kg ip, 30 min after administration
  Withdrawal threshold of the right hind paw to mechanical stimulation (mean): 7.28^d g
20 mg/kg ip, 1 h
  Effect (%) (% MPE, percent of maximum possible effect): 73.2%
20 mg/kg ip, 1 h after administration
  Withdrawal threshold of the right hind paw to mechanical stimulation (mean): 10.04^e g
20 mg/kg ip, 2 h
  Effect (%) (% MPE, percent of maximum possible effect): 82.2%
20 mg/kg ip, 2 h after administration
  Withdrawal threshold of the right hind paw to mechanical stimulation (mean): 10.92^e g
20 mg/kg ip, 4 h
  Effect (%) (% MPE, percent of maximum possible effect): 16.2%
20 mg/kg ip, 4 h after administration
  Withdrawal threshold of the right hind paw to mechanical stimulation (mean): 4.52 g
20 mg/kg
  Area under the curve of the paw withdrawal threshold curve over time, compared with the vehicle group: statistically significant effects
5, 10 and 20 mg/kg ip, dose dependence
  Area under the curve of the paw withdrawal threshold curve over time: dose-dependent effect
dose-dependent manner
  Muscle mechanical hyperalgesia in the chronic myalgia model: significantly reduces
Intraperitoneally at doses of 5, 10 and 20 mg/kg
  Mechanical allodynia induced by repeated injections of acidic saline: significantly inhibited
Overall conclusion
  Effect in the fibromyalgia disease model: significant effect
